Experimental data as given in PubChem BioAssay (NCI).
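Cells were grown in 96-well plates and exposed to each compound for 48 hours at five concentrations; endpoints were interpolated linearly between bracketing concentrations, or set to the highest concentration if not reached. The concentration for full growth arrest is given as TGI.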 Where a SMILES comes first, the peptide text is derived from it. The star is where a group is joined. OSu = O=C1CCC(=O)N1O*

These molecules were tested on K-562 leukemia (assay: DTP human tumour cell line panel, 48 h).

Row | SMILES | TGI [µM]
1 | Cc1ccc(-[n+]2cc([O-])on2)cc1 | > 100
2 | C(=C/CCCN1O[C@@H](CCCCCCCCc2cccnc2)[C@H]2CCC[C@H]21)/CCCCCCCCCc1cccnc1 | 29
3 | NCCCCC(NC(=O)C(N)Cc1ccc(O)cc1)C(=O)NC(CCCCN)C(=O)NC(CCCCN)C(=O)ON1C(=O)CCC1=O (configuration not stated) (H-YKKK-OSu; configuration not given here) | > 100
4 | Cc1ccc(S(=O)(=O)N2CC2CCCCC=O)cc1 (configuration not stated) | > 100
5 | NC(N)=NS(=O)(=O)c1ccc(N=Nc2c(O)c(C(=O)O)cc3ccccc23)cc1 | > 100

The molecules below were run on MOLT-4 leukemia (assay: DTP human tumour cell line panel, 48 h).

Row | SMILES | TGI [µM]
6 | C=C(C)C12OC1[C@@]1(C)C(=CC2=O)CCC(O)[C@@H]1C (some centres not stated) | 3.66
7 | CCOC(=O)c1nnn(CCCCO)c1C(=O)OCC | > 100
8 | Cc1ccc(-[n+]2cc([O-])on2)cc1 | > 100
9 | C(=C/CCCN1O[C@@H](CCCCCCCCc2cccnc2)[C@H]2CCC[C@H]21)/CCCCCCCCCc1cccnc1 | 55.1
10 | NCCCCC(NC(=O)C(N)Cc1ccc(O)cc1)C(=O)NC(CCCCN)C(=O)NC(CCCCN)C(=O)ON1C(=O)CCC1=O (configuration not stated) (H-YKKK-OSu; configuration not given here) | > 100
11 | Cc1ccc(S(=O)(=O)N2CC2CCCCC=O)cc1 (configuration not stated) | > 100
12 | NC(N)=NS(=O)(=O)c1ccc(N=Nc2c(O)c(C(=O)O)cc3ccccc23)cc1 | > 100

Each molecule was assayed on SW-620 colon (assay: DTP human tumour cell line panel, 48 h).

Row | SMILES | TGI [µM]
13 | C=C(C)C12OC1[C@@]1(C)C(=CC2=O)CCC(O)[C@@H]1C (some centres not stated) | > 100
14 | CCOC(=O)c1nnn(CCCCO)c1C(=O)OCC | > 100
15 | Cc1ccc(-[n+]2cc([O-])on2)cc1 | > 100
16 | C(=C/CCCN1O[C@@H](CCCCCCCCc2cccnc2)[C@H]2CCC[C@H]21)/CCCCCCCCCc1cccnc1 | 91.8
17 | NCCCCC(NC(=O)C(N)Cc1ccc(O)cc1)C(=O)NC(CCCCN)C(=O)NC(CCCCN)C(=O)ON1C(=O)CCC1=O (configuration not stated) (H-YKKK-OSu; configuration not given here) | > 100
18 | Cc1ccc(S(=O)(=O)N2CC2CCCCC=O)cc1 (configuration not stated) | > 100
19 | NC(N)=NS(=O)(=O)c1ccc(N=Nc2c(O)c(C(=O)O)cc3ccccc23)cc1 | > 100

What follows are molecules tested on UACC-257 melanoma (assay: DTP human tumour cell line panel, 48 h).

Row | SMILES | TGI [µM]
20 | C=C(C)C12OC1[C@@]1(C)C(=CC2=O)CCC(O)[C@@H]1C (some centres not stated) | > 100
21 | CCOC(=O)c1nnn(CCCCO)c1C(=O)OCC | > 100
22 | Cc1ccc(-[n+]2cc([O-])on2)cc1 | > 100
23 | C(=C/CCCN1O[C@@H](CCCCCCCCc2cccnc2)[C@H]2CCC[C@H]21)/CCCCCCCCCc1cccnc1 | 41.7
24 | NCCCCC(NC(=O)C(N)Cc1ccc(O)cc1)C(=O)NC(CCCCN)C(=O)NC(CCCCN)C(=O)ON1C(=O)CCC1=O (configuration not stated) (H-YKKK-OSu; configuration not given here) | > 100
25 | Cc1ccc(S(=O)(=O)N2CC2CCCCC=O)cc1 (configuration not stated) | > 100
26 | NC(N)=NS(=O)(=O)c1ccc(N=Nc2c(O)c(C(=O)O)cc3ccccc23)cc1 | > 100

These molecules were tested on OVCAR-3 ovarian (assay: DTP human tumour cell line panel, 48 h).

Row | SMILES | TGI [µM]
27 | C=C(C)C12OC1[C@@]1(C)C(=CC2=O)CCC(O)[C@@H]1C (some centres not stated) | > 100
28 | Cc1ccc(-[n+]2cc([O-])on2)cc1 | > 100
29 | C(=C/CCCN1O[C@@H](CCCCCCCCc2cccnc2)[C@H]2CCC[C@H]21)/CCCCCCCCCc1cccnc1 | 36.1
30 | Cc1ccc(S(=O)(=O)N2CC2CCCCC=O)cc1 (configuration not stated) | > 100
31 | NC(N)=NS(=O)(=O)c1ccc(N=Nc2c(O)c(C(=O)O)cc3ccccc23)cc1 | > 100

The molecules below were run on RXF 393 renal (assay: DTP human tumour cell line panel, 48 h).

Row | SMILES | TGI [µM]
32 | CCOC(=O)c1nnn(CCCCO)c1C(=O)OCC | > 100
33 | Cc1ccc(-[n+]2cc([O-])on2)cc1 | > 100
34 | C(=C/CCCN1O[C@@H](CCCCCCCCc2cccnc2)[C@H]2CCC[C@H]21)/CCCCCCCCCc1cccnc1 | 32.9
35 | NCCCCC(NC(=O)C(N)Cc1ccc(O)cc1)C(=O)NC(CCCCN)C(=O)NC(CCCCN)C(=O)ON1C(=O)CCC1=O (configuration not stated) (H-YKKK-OSu; configuration not given here) | > 100
36 | Cc1ccc(S(=O)(=O)N2CC2CCCCC=O)cc1 (configuration not stated) | > 100
37 | NC(N)=NS(=O)(=O)c1ccc(N=Nc2c(O)c(C(=O)O)cc3ccccc23)cc1 | > 100

Each molecule was assayed on 786-0 renal (assay: DTP human tumour cell line panel, 48 h).

Row | SMILES | TGI [µM]
38 | C=C(C)C12OC1[C@@]1(C)C(=CC2=O)CCC(O)[C@@H]1C (some centres not stated) | 13.4
39 | CCOC(=O)c1nnn(CCCCO)c1C(=O)OCC | > 100
40 | Cc1ccc(-[n+]2cc([O-])on2)cc1 | > 100
41 | C(=C/CCCN1O[C@@H](CCCCCCCCc2cccnc2)[C@H]2CCC[C@H]21)/CCCCCCCCCc1cccnc1 | 37
42 | NCCCCC(NC(=O)C(N)Cc1ccc(O)cc1)C(=O)NC(CCCCN)C(=O)NC(CCCCN)C(=O)ON1C(=O)CCC1=O (configuration not stated) (H-YKKK-OSu; configuration not given here) | > 100
43 | Cc1ccc(S(=O)(=O)N2CC2CCCCC=O)cc1 (configuration not stated) | > 100
44 | NC(N)=NS(=O)(=O)c1ccc(N=Nc2c(O)c(C(=O)O)cc3ccccc23)cc1 | > 100

Each molecule was assayed on COLO 205 colon (assay: DTP human tumour cell line panel, 48 h).

Row | SMILES | TGI [µM]
45 | C=C(C)C12OC1[C@@]1(C)C(=CC2=O)CCC(O)[C@@H]1C (some centres not stated) | 6.5
46 | CCOC(=O)c1nnn(CCCCO)c1C(=O)OCC | > 100
47 | C(=C/CCCN1O[C@@H](CCCCCCCCc2cccnc2)[C@H]2CCC[C@H]21)/CCCCCCCCCc1cccnc1 | 30.9
48 | NCCCCC(NC(=O)C(N)Cc1ccc(O)cc1)C(=O)NC(CCCCN)C(=O)NC(CCCCN)C(=O)ON1C(=O)CCC1=O (configuration not stated) (H-YKKK-OSu; configuration not given here) | > 100
49 | Cc1ccc(S(=O)(=O)N2CC2CCCCC=O)cc1 (configuration not stated) | > 100
50 | NC(N)=NS(=O)(=O)c1ccc(N=Nc2c(O)c(C(=O)O)cc3ccccc23)cc1 | > 100

What follows are molecules tested on SN12C renal (assay: DTP human tumour cell line panel, 48 h).

Row | SMILES | TGI [µM]
51 | C=C(C)C12OC1[C@@]1(C)C(=CC2=O)CCC(O)[C@@H]1C (some centres not stated) | 11.5
52 | CCOC(=O)c1nnn(CCCCO)c1C(=O)OCC | > 100
53 | Cc1ccc(-[n+]2cc([O-])on2)cc1 | > 100
54 | C(=C/CCCN1O[C@@H](CCCCCCCCc2cccnc2)[C@H]2CCC[C@H]21)/CCCCCCCCCc1cccnc1 | 40.3
55 | NCCCCC(NC(=O)C(N)Cc1ccc(O)cc1)C(=O)NC(CCCCN)C(=O)NC(CCCCN)C(=O)ON1C(=O)CCC1=O (configuration not stated) (H-YKKK-OSu; configuration not given here) | > 100
56 | Cc1ccc(S(=O)(=O)N2CC2CCCCC=O)cc1 (configuration not stated) | > 100
57 | NC(N)=NS(=O)(=O)c1ccc(N=Nc2c(O)c(C(=O)O)cc3ccccc23)cc1 | > 100

These molecules were tested on SK-MEL-28 melanoma (assay: DTP human tumour cell line panel, 48 h).

Row | SMILES | TGI [µM]
58 | C=C(C)C12OC1[C@@]1(C)C(=CC2=O)CCC(O)[C@@H]1C (some centres not stated) | > 100
59 | CCOC(=O)c1nnn(CCCCO)c1C(=O)OCC | > 100
60 | Cc1ccc(-[n+]2cc([O-])on2)cc1 | > 100
61 | C(=C/CCCN1O[C@@H](CCCCCCCCc2cccnc2)[C@H]2CCC[C@H]21)/CCCCCCCCCc1cccnc1 | 48.7
62 | NCCCCC(NC(=O)C(N)Cc1ccc(O)cc1)C(=O)NC(CCCCN)C(=O)NC(CCCCN)C(=O)ON1C(=O)CCC1=O (configuration not stated) (H-YKKK-OSu; configuration not given here) | > 100
63 | Cc1ccc(S(=O)(=O)N2CC2CCCCC=O)cc1 (configuration not stated) | > 100
64 | NC(N)=NS(=O)(=O)c1ccc(N=Nc2c(O)c(C(=O)O)cc3ccccc23)cc1 | > 100

These molecules were tested on T-47D breast (assay: DTP human tumour cell line panel, 48 h).

Row | SMILES | TGI [µM]
65 | C=C(C)C12OC1[C@@]1(C)C(=CC2=O)CCC(O)[C@@H]1C (some centres not stated) | 78.4
66 | CCOC(=O)c1nnn(CCCCO)c1C(=O)OCC | > 100
67 | Cc1ccc(-[n+]2cc([O-])on2)cc1 | > 100
68 | C(=C/CCCN1O[C@@H](CCCCCCCCc2cccnc2)[C@H]2CCC[C@H]21)/CCCCCCCCCc1cccnc1 | 66.6
69 | NCCCCC(NC(=O)C(N)Cc1ccc(O)cc1)C(=O)NC(CCCCN)C(=O)NC(CCCCN)C(=O)ON1C(=O)CCC1=O (configuration not stated) (H-YKKK-OSu; configuration not given here) | > 100
70 | Cc1ccc(S(=O)(=O)N2CC2CCCCC=O)cc1 (configuration not stated) | > 100
71 | NC(N)=NS(=O)(=O)c1ccc(N=Nc2c(O)c(C(=O)O)cc3ccccc23)cc1 | > 100

Each molecule was assayed on HCT-116 colon (assay: DTP human tumour cell line panel, 48 h).

Row | SMILES | TGI [µM]
72 | C=C(C)C12OC1[C@@]1(C)C(=CC2=O)CCC(O)[C@@H]1C (some centres not stated) | 14.2
73 | CCOC(=O)c1nnn(CCCCO)c1C(=O)OCC | > 100
74 | Cc1ccc(-[n+]2cc([O-])on2)cc1 | > 100
75 | C(=C/CCCN1O[C@@H](CCCCCCCCc2cccnc2)[C@H]2CCC[C@H]21)/CCCCCCCCCc1cccnc1 | 40.4
76 | NCCCCC(NC(=O)C(N)Cc1ccc(O)cc1)C(=O)NC(CCCCN)C(=O)NC(CCCCN)C(=O)ON1C(=O)CCC1=O (configuration not stated) (H-YKKK-OSu; configuration not given here) | > 100
77 | Cc1ccc(S(=O)(=O)N2CC2CCCCC=O)cc1 (configuration not stated) | > 100
78 | NC(N)=NS(=O)(=O)c1ccc(N=Nc2c(O)c(C(=O)O)cc3ccccc23)cc1 | > 100

These molecules were tested on IGROV1 ovarian (assay: DTP human tumour cell line panel, 48 h).

Row | SMILES | TGI [µM]
79 | C=C(C)C12OC1[C@@]1(C)C(=CC2=O)CCC(O)[C@@H]1C (some centres not stated) | 13.3
80 | CCOC(=O)c1nnn(CCCCO)c1C(=O)OCC | > 100
81 | Cc1ccc(-[n+]2cc([O-])on2)cc1 | > 100
82 | C(=C/CCCN1O[C@@H](CCCCCCCCc2cccnc2)[C@H]2CCC[C@H]21)/CCCCCCCCCc1cccnc1 | 79.4
83 | NCCCCC(NC(=O)C(N)Cc1ccc(O)cc1)C(=O)NC(CCCCN)C(=O)NC(CCCCN)C(=O)ON1C(=O)CCC1=O (configuration not stated) (H-YKKK-OSu; configuration not given here) | > 100
84 | Cc1ccc(S(=O)(=O)N2CC2CCCCC=O)cc1 (configuration not stated) | > 100
85 | NC(N)=NS(=O)(=O)c1ccc(N=Nc2c(O)c(C(=O)O)cc3ccccc23)cc1 | > 100

What follows are molecules tested on EKVX NSCLC (assay: DTP human tumour cell line panel, 48 h).

Row | SMILES | TGI [µM]
86 | C=C(C)C12OC1[C@@]1(C)C(=CC2=O)CCC(O)[C@@H]1C (some centres not stated) | 6.69
87 | CCOC(=O)c1nnn(CCCCO)c1C(=O)OCC | > 100
88 | Cc1ccc(-[n+]2cc([O-])on2)cc1 | > 100
89 | C(=C/CCCN1O[C@@H](CCCCCCCCc2cccnc2)[C@H]2CCC[C@H]21)/CCCCCCCCCc1cccnc1 | 13.9
90 | NCCCCC(NC(=O)C(N)Cc1ccc(O)cc1)C(=O)NC(CCCCN)C(=O)NC(CCCCN)C(=O)ON1C(=O)CCC1=O (configuration not stated) (H-YKKK-OSu; configuration not given here) | > 100
91 | Cc1ccc(S(=O)(=O)N2CC2CCCCC=O)cc1 (configuration not stated) | > 100
92 | NC(N)=NS(=O)(=O)c1ccc(N=Nc2c(O)c(C(=O)O)cc3ccccc23)cc1 | > 100
